Results as given in paper PMC12595434, “Development of retinoid nuclear receptor pathway antagonists through targeting aldehyde dehydrogenase 1A3” (iScience, 2025).

Key:
ALDH1A3 cells = settings: cited from earlier work
ALDH1A3 [1] = biological target: T1, ALDH1A3 (Homo sapiens, UniProt P47895); experiment: Recombinant enzyme activity assay; assay type: biochemical; set-up: made in house; host or cells: BL21-DE3 E. coli; settings: dose titration, up to 10 μM
T1 sequence (P47895 1-512): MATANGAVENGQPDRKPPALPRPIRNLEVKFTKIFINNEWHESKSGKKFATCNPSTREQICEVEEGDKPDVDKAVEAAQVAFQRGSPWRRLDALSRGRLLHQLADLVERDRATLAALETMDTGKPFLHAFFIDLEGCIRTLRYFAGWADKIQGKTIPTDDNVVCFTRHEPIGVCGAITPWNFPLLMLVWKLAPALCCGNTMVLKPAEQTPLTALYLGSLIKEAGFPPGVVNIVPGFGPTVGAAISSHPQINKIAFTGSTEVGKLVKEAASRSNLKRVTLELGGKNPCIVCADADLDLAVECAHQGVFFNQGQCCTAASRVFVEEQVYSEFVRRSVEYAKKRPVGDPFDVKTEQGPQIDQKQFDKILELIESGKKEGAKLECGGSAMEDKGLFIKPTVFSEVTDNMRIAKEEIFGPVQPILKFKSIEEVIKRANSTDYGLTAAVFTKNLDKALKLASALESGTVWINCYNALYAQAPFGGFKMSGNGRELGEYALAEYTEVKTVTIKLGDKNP

MDA-MB-468 cells = settings: MDA-MB-468, 24 hour incubation, highest tested dose 10 μM
human ALDH1A1 = biological target: T2, human ALDH1A1 (Homo sapiens, UniProt P00352); experiment: Recombinant enzyme activity assay; assay type: biochemical; settings: dose titration, up to 10 μM
T2 construct: made in house; host or cells: BL21-DE3 E. coli
T2 sequence (P00352 1-501): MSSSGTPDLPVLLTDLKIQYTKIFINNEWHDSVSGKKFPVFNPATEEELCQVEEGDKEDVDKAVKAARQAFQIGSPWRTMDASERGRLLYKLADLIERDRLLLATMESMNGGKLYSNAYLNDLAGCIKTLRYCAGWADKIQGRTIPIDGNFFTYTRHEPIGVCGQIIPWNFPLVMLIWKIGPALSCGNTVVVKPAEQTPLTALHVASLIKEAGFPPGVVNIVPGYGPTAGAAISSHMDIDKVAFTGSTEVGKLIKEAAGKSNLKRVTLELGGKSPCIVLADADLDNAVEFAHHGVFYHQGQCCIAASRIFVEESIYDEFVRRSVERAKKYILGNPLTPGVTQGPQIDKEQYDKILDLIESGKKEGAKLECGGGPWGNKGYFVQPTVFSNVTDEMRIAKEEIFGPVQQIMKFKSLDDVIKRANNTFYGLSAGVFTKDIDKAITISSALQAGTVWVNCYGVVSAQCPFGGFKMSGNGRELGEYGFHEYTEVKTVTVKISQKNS

human ALDH1A2 = biological target: T3, human ALDH1A2 (Homo sapiens, UniProt O94788); experiment: Recombinant enzyme activity assay; assay type: biochemical; settings: dose titration, up to 10 μM
T3 construct: made in house; host or cells: BL21-DE3 E. coli
T3 sequence (O94788 1-518): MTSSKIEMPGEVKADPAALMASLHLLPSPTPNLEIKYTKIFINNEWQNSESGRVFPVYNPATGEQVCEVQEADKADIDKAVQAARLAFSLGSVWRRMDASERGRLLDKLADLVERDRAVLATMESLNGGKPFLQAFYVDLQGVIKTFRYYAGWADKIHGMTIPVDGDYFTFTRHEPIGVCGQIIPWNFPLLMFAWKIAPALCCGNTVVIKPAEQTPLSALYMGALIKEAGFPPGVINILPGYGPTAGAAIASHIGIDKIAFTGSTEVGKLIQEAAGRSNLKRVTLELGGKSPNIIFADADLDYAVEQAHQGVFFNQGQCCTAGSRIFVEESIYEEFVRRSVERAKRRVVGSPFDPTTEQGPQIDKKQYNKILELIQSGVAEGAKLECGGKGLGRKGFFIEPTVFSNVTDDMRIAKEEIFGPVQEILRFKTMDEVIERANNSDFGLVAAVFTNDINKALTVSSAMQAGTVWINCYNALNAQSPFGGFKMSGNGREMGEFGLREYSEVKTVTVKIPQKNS
Description: Human and mouse ALDH enzymes were cloned from respective reference RNA, constructed into plasmids using restriction enzyme cloning and confirmed by Sanger Sequencing. Genes were cloned into a vector containing the T7 promoter for bacterial expression and into a lentiviral expression vector for cell line expression as previously described.[78] Recombinant protein was isolated by inducing BL21-DE3 E. coli (Thermo Fisher) containing the respective plasmid for 20 h at room temperature, shaking, with 300 μM IPTG (Selleck Chem). Cell disruption was achieved via ultrasonication (Φ10, 3s on/6s off, 25min) in 1L of amplified bacterial culture. The target protein was then purified using Ni NTA beads 6FF affinity chromatography. Lysis buffer consisted of 50 mM Na2HPO4, 300 mM NaCl, 1 mM β-ME, pH7.5. The column (2 mL) was washed with 50 mM Na2HPO4, 300 mM NaCl, 1 mM β-ME, 20 mM Imidazole, pH7.5. Elution was performed using 3 mL of 50 mM Na2HPO4, 300 mM NaCl, 1 mM β-ME, 250 mM Imidazole, pH7.5. Following affinity chromatography, the protein underwent further purification via Gel filtration chromatography using a Superdex200 column. Aliquots were quality controlled against a pure internal standard enzyme and/or by western blot to confirm enzyme expression. Purified enzyme was used for biochemical and biophysical assays.
For the recombinant enzyme activity assay, enzyme aliquots were thawed on ice for 4 h prior to analysis and the protocol was performed as described[8] with the following key changes: 1) Final concentrations of NAD+ (Gold Bio) were 200 μM and BSA were 1 mg/mL 2) Propanaldehyde was used as the substrate for ALDH1A1 and ALDH2. 3) Reaction velocity was monitored through diaphorase (clostridium) coupled reduction of resazurin (100 μM) monitored with ex/em of 560nm/590 nm in order to regenerate NAD+ and thus maintain constant cofactor concentration as well as to avoid high absorbance values of many screening compounds at the NADH absorbance. Assays were conducted at room temperature (controlled to 21-23C) and all buffers were maintained at pH 7.5. For all reactions, pre-incubation time was approximately 2 min while the reaction monitoring was performed over 10 min.

HaCaT cells = experiment: Dose-titration cytotoxicity analysis; settings: 24 hour incubation, highest tested dose 10 μM
ALDH1A3 [2] = settings: read-out: reported IC50 for ALDH1A3; cited from earlier work
[3] = biological target: T4, human ALDH1A3 in A375 cells (Homo sapiens, UniProt P47895); experiment: Aldefluor assay in A375 cells; assay type: cell-based; settings: up to 10 μM
T4 construct: the cell lines with high endogenous ALDH1A3 activity: MDA-MB-468 (triple-negative breast cancer), A375 (melanoma), and LN229 (glioblastoma); endogenous in cells; host or cells: A375
T4 sequence (P47895 1-512): T1 sequence (P47895 1-512)

ALDH1A1 in HepG2 cells = biological target: T5, ALDH1A1 in HepG2 cells (Homo sapiens, UniProt P00352); experiment: Aldefluor assay in HepG2 cells; assay type: cell-based; settings: 45 min incubation at 37°C
T5 construct: endogenous in cells; host or cells: HepG2
Description: In addition, cells were suspended at a concentration of 100,000 cells per mL. Finally, DMSO was added to at 1% final in all cells to improve kinetics of the assay. For compound titrations, concentrated compound stock was added first to tubes and a uniform Aldefluor buffer containing the cell suspension was added to dilute to final volumes. Cells were analyzed by a BD LSRII for flow cytometry and were sorted using a FACSAria Fusion cell sorter (BD Biosciences) equipped with a 70 micron nozzle. Sample and sort collection tubes were kept at 4°C. […] DAPI was used as a live-dead indicator.

| activity in Aldefluor assay, A375 cells (in words) [3] | inhibition at 10 µM (ALDH1A1 in HepG2 cells) [%] | SMILES | inhibition (GABAA) [%] | reported cytotoxic activity against ALDH1A3 cells (in words) (ALDH1A3 cells) | inhibitory activity against ALDH1A3 (in words) (ALDH1A3 [1]) | nonspecific cytotoxicity (in words) (MDA-MB-468 cells) | inhibitory activity against ALDH1A1 (in words) (human ALDH1A1) | inhibitory activity against ALDH1A2 (in words) (human ALDH1A2) | nonspecific cytotoxicity (in words) (HaCaT cells) | IC50 (ALDH1A3 [2]) [nM] |
| --- | --- | --- | --- | --- | --- | --- | --- | --- | --- | --- |
|  |  | CCOC(=O)c1ncn2c1CN(C)C(=O)c1cc(F)ccc1-2 [flumazenil] | 95.9 |  |  |  |  |  |  |  |
|  |  | c1ccc(-c2ccc3nc(-c4ccccc4)cn3c2)cc1 [GA11] |  | picomolar | no ALDH1A3 inhibitory activity up to 10 μM | potent cytotoxicity above 100 nM | no activity up to 10 μM | no activity up to 10 μM | potent cytotoxicity above 100 nM | 660 |
| no dose-dependent inhibition of activity | 13 | CSC(=O)C#CC(C)(C)N(C)C [DIMATE, S-methyl 4-(dimethylamino)-4-methyl-pent-2-ynethioate] |  |  | did not show any activity |  | did not show any activity | did not show any activity |  |  |
